Reference: patent EP4741383A1, “COMPOUND AND USE THEREOF AS ANTI-CANCER DRUG” (Tyligand Bioscience (Shanghai) Limited, priority 2023, dated 2025)
pIC50: −log10 of the molar value.

Tests used:
KYSE520 = assay: CellTiter-Glo cell proliferation inhibition, KYSE520; assay type: cell-based, human; conditions: Homo sapiens, KYSE-520; KYSE520 cells, 120 hours, CellTiter-Glo
Text: In this study, the CellTiter-Glo® Luminescent Cell Viability Assay kit from Promega was used to evaluate the inhibitory effects of the disclosed compounds on the proliferation of cell lines KYSE520 (a human esophageal squamous cell carcinoma cell line dependent on SHP2 for growth), MeWo (a human malignant melanoma cell line), and MV4-11 (an RTK-mutant human acute monocytic leukemia cell line).
KYSE520 cells (Nanjing Kebaio Biotechnology Co., Ltd., Catalog #CBP60658) were thawed by rapidly shaking the cryovial in a 37 °C water bath to thaw within 1 minute. The thawed cell suspension was mixed homogeneously with RPMI 1640 medium (HyClone, Catalog #SH30027.01) containing 10% FBS (ExCell, Catalog #FND500), centrifuged at 1000 rpm for 5 minutes, and the supernatant was discarded. The cell pellet was resuspended in 5 mL of complete culture medium (RPMI 1640 medium containing 10% FBS) and placed in a cell culture flask with 25 cm^2 of bottom area, then cultured in a cell culture incubator at 37 °C, 95% humidity, and 5% CO2. Cell passaging was performed when the cell confluence reached approximately 80%. During cell passaging, the old culture medium was discarded, the cells were washed once with DPBS (Thermo Fisher, Catalog #14190-144), and 1 mL of trypsin (Thermo Fisher, Catalog #25200072) was added to digest the cells. When the cells dispersed into single cells and detached from the bottom of the culture flask, 3 mL of fresh complete culture medium was added to stop the digestion. After gently pipetting the cell suspension, 1/5 of the cell suspension was retained, 5 mL of fresh complete culture medium was added, and after mixing, the cells were placed in a cell culture flask for further culture. Cell plating was performed when the cell confluence again reached approximately 80%. During cell plating, following the cell passaging method, 1/5 of the cell suspension was retained for continued culture, and the remaining 4/5 of the cell suspension was placed in a 15 mL centrifuge tube. Cell viability was determined using the trypan blue exclusion method to ensure that cell viability was above 90%. A cell suspension with a density of 2.22 × 10^4 cells/mL was prepared using complete culture medium, and 135 µL of the cell suspension was added to a 96-well transparent flat-bottom black-walled cell culture plate (Greiner, Catalog #655090), resulting in a cell density of 3000 viable cells per well. A control group containing only complete culture medium without cells and compounds (i.e., culture medium control) and a control group containing cells but no compound (i.e., cell control) were set up. The cell plates were incubated overnight in a cell culture incubator. First, a 10 mM stock solution of the compound (Example compound and positive control compound 11a-1) in DMSO (Damas-beta, catalog #75927R) was serially diluted 3-fold to the 9th concentration, and a 10th concentration containing only DMSO (without compound) was also prepared as a control. Then, the DMSO solutions containing different concentrations of the compound were diluted 100-fold with complete culture medium, resulting in a 1% DMSO concentration in each solution. Finally, 15 µL of each solution was added to the corresponding wells of the cell culture plate, resulting in a starting compound concentration of 10 µM, with a 3-fold dilution between adjacent concentrations, and a final DMSO concentration of 0.1% in the cell culture plate. The cell plates were then incubated in the cell culture incubator for another 120 hours.
For endpoint detection, CellTiter-Glo reagent (Promega, catalog number #G7573, CellTiter-Glo® Luminescent Cell Viability Assay Kit) was melt and each cell plate was moved to room temperature for equilibration for 30 minutes. 75 µL (KYSE520 cells) or 50 µL (MeWo cells and MV 4-11 cells) of CellTiter-Glo was added to each well of the corresponding cell plate. The plates were shaken on a track-mounted shaker for 2 minutes to fully lyse the cells. […]

[1] = molecular target: T1, SHP2 enzyme (catalytic domain, amino acid sequence 224-528) (Homo sapiens, UniProt Q06124); assay: SHP2 enzyme inhibition assay (DiFMUP substrate, fluorescence); assay type: biochemical; conditions: for pIC50: SHP2 catalytic domain, DiFMUP substrate, 30 min pre-incubation, read-out: S HP2 I C50
T1 construct: purchased GenScript
T1 sequence (Q06124 224-528): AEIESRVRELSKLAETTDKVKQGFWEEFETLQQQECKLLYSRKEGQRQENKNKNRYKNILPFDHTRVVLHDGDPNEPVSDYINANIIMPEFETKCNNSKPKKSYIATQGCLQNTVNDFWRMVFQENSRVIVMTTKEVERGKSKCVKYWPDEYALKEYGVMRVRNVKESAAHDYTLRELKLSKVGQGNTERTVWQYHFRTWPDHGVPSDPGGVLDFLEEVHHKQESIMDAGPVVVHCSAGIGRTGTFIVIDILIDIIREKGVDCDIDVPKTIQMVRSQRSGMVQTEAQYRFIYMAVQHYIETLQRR
Procedure: This experiment evaluates the inhibitory effect of the test compounds on SHP2 enzyme activity by detecting the reaction between the human recombinant protein SHP2 enzyme and the substrate.
The stock solutions of the reaction buffer components were thawed and mixed homogeneously at room temperature, to prepare the reaction buffer (55 mM HEPES pH = 7.2 (Sigma, Cat. No. #PHR1428), 100 mM NaCl (Beyotime, Cat. No. #ST374, 5 M solution), 0.5 mM EDTA (Beyotime, Cat. No. #ST066), 1 mM DL-Dithiothreitol (DTT) (Sigma, Cat. No. #D9779), 0.002% BSA (Solarbio, Cat. No. #A8010), 0.001% Brij35 (Brij® L23 solution (Brij35) (Sigma, Cat. No. #B4184)). The SHP2 enzyme (catalytic domain, amino acid sequence 224-528, expressed and purified by GenScript) was thawed slowly on ice. 1 µL of this solution (1.37 mg/mL) was added to 386 µL of the reaction buffer to dilute it to 100 nM. Then, 120 µL of the 100 nM SHP2 enzyme solution was added to 2880 µL of reaction buffer to prepare a 4 nM SHP2 enzyme working solution. The test compounds and the specific inhibitor of SHP2 (11a-1, used as a positive control, Zeng, L. et al., J. Med. Chem. 2014, 57, 6594-6609) were prepared as 10 mM DMSO solutions. 10 µL of the 10 mM compound solution was mixed with 20 µL of DMSO solution, and then serially diluted 3-fold, resulting in 10 concentrations. 1 µL of the serially diluted solution was mixed with 99 µL of reaction buffer to obtain a 10-fold diluted compound working solution.
A 96-well black half-area microplate (Greiner, catalog #675076) was used. 25 µL of 4 nM SHP2 enzyme working solution and 5 µL of 10x compound working solution were added to each well and incubated at room temperature for 30 minutes. 15 µL of DiFMUP substrate (Thermo Fisher Scientific, catalog #D6567) was added to 2985 µL of reaction buffer to prepare a 50 µM substrate working solution. After incubation of the compounds and SHP2 enzyme, 20 µL of the 50 µM substrate working solution was added to each well and incubated at room temperature for 5 minutes. The plate was then read on a multi-mode microplate reader (BioTek, Synergy H1) at 340 nm/450 nm fluorescence.
Data were analyzed using GraphPad Prism 9.0 software. A non-linear S-curve regression dose-response-inhibition equation was used to fit the data and generate the dose-response curve, from which the IC50 value was calculated. [formula]

SMILES	IC50 (KYSE520)	pIC50 [1]	SHP2 IC50 times lower than control compound 11a-1 ([1]; relative to 11a-1, IC50 = 0.108 µM)
O=C(Nc1ccc(-c2cc3cc(F)c(-c4nnn[nH]4)cc3n2C2CCC2)cc1)C(=O)Nc1ccc(N2CC3CC(CO)CC3C2)cc1 (stereo not shown) [Example 119]	0.105 µM	7.26	
CC1(n2c(-c3ccc(NC(=O)C(=O)Nc4ccc(N5CCC6(CCCOC6)CC5)cc4)cc3)cc3cc(F)c(-c4nnn[nH]4)cc32)CCC1 [Example 75]	0.103 µM	7.47	3-4 times
CC1(O)CC2(CCN(c3ccc(NC(=O)C(=O)Nc4ccc(-c5cc6cc(F)c(-c7nnn[nH]7)cc6n5C5CCC5)cc4)cc3)C2)C1 (stereo not shown) [Example 91]	0.101 µM	7.03	
CC1(n2c(-c3ccc(NC(=O)C(=O)Nc4ccc(N5CCC6(CCC(CO)C6)CC5)cc4)cc3)cc3cc(F)c(-c4nnn[nH]4)cc32)CCC1 (stereo not shown) [Example 107]	0.101 µM	6.86	
CC(C)(O)C1CC2(CCN(c3ccc(NC(=O)C(=O)Nc4ccc(-c5cc6cc(F)c(-c7nnn[nH]7)cc6n5C5(C)CCC5)cc4)cc3)CC2)C1 [Example 99]	0.17 µM	7.11	
CC1(O)CCC2(CCN(c3ccc(NC(=O)C(=O)Nc4ccc(-c5cc6cc(F)c(-c7nnn[nH]7)cc6n5C5CCC5)cc4)cc3)CC2)C1 (stereo not shown) [Example 104]	0.125 µM	7.15	
